Measurements reported in paper PMC10111420, “Optimization of Host Cell-Compatible, Antimicrobial Peptides Effective against Biofilms and Clinical Isolates of Drug-Resistant Bacteria” (ACS Infectious Diseases, 2023).
In brackets after ≈: the same amount, converted by molar mass. Like-named read-outs stand apart in the source and are kept apart here. Where a SMILES comes first, the peptide text is derived from it. Bridges are numbered along the chain shown (N, C = ends). [ ]: non-standard residue; d: D form.

Tests used:
[1] = test system: Acinetobacter baumannii (PDR) Tulane isolate; experiment: microbe, parasite or virus in culture; conditions: read-out: MIC, AB (PDR)Tulane
[2] = test system: MRSA SAP400, a USA400 strain; experiment: microbe, parasite or virus in culture; conditions: for MIC: Staphylococcus aureus, read-out: MIC, MRSA USA400
Description: (§1) Subcultures, prepared by inoculating 25 mL of fresh tryptic soy broth (TSB) with 200 μL of an overnight culture, were grown to log phase (OD600 = 0.3–0.6), after which cell counts were determined by measuring the OD600 (1.0 = 5 × 10^8 CFU/mL for E. coli, 4 × 10^8 CFU/mL for K. pneumoniae, 4 × 10^8 CFU/mL for P. aeruginosa, 1.5 × 10^8 CFU/mL for S. aureus). Bacterial cells were diluted to appropriate concentrations in TSB. We used the following clinical bacterial isolates of Klebsiella pneumoniae in this study: Strains KP6, KP46, NDM-1, KP396, and KP398 have been previously described.[43] ST58 strains C2, C3, and I2 are also described.[41] […] MRSA, […] S. aureus strain, is SAP400, a USA400 strain of community-acquired MRSA. […] The second independent set of K. pneumoniae isolates are previously described.[20],[21]
(§2) The antibiotics were serially diluted by a factor of 2:3 horizontally across 96-well plates from Corning, 25 μL per well. One column was reserved for controls. For the assays performed in the presence of RBC, type O+ human RBCs at 0 or 2.5 × 10^9 cells/mL were added in 50 μL aliquots to all wells. Following a 30-min incubation, 50 μL of TSB, inoculated with 5 × 10^5 CFU/mL, was added to all wells, and plates were incubated overnight at 37 °C. Following overnight incubation at 37 °C, the OD600 was measured (values of less than 0.1 were considered sterilized). To assess bacterial growth in the assays with RBC, the OD600 was measured after a second-day inoculation with 10 μL of solution from the original plate added to 100 μL of sterile TSB followed by overnight incubation.
(§3) Experiments were repeated four to eight times independently, with pairs of replicate measurements on each 96-well plate. After overnight growth, optical densities were measured at 660 nm and the sterilized wells were identified by having O.D. < 0.08. Nonsterilized wells were nearly opaque with OD > 0.6. For each measurement, we recorded the largest dilution that sterilized the bacteria. Statistics are done on dilution numbers, rather than calculated concentrations, because only the former have normal distributions.

[3] = test system: Pseudomonas aeruginosa clinical isolates; experiment: microbe, parasite or virus in culture; conditions: for MIC: Pseudomonas aeruginosa
Description: as §1, §2, §3

[4] = test system: 14 clinical isolates of resistant bacterial strains; experiment: Broth dilution, summary over the 14 clinical isolates of the first set; assay type: cell-based; conditions: statement for all 14 clinical isolates of the first set; read-out: MIC, all isolates (completely resistant)
Description: In Figure 4B, we plot the fraction of isolates sterilized as functions of antibiotic concentration.
as §1, §2

[5] = test system: K. pneumoniae clinical isolates; experiment: microbe, parasite or virus in culture; conditions: for MIC: Klebsiella pneumoniae
Description: as §1
as §2, with “Following a 30-min incubation, 50 μL of TSB, inoculated with 5 × 10^5 CFU/mL, was added to all wells, and plates were incubated overnight at 37 °C. Following overnight incubation at 37 °C, the OD600 was measured (values of less than 0.1 were considered sterilized).” left out
as §3

[6] = test system: Escherichia coli (ATCC 25922)
Description: All peptide variants were synthesized and purified as described previously.[5],[7] They were tested in broth dilution in the presence and absence of 1 × 10^9 human RBCs per mL, 20% of the concentration in human blood, against Escherichia coli, K. pneumoniae, and Staphylococcus aureus. […] The toxicity of the variants was tested by measuring hemolysis as well as cytotoxicity against human WI-38 fibroblast cells.
as §1, §2, §3

human RBCs = assay type: cell-based
Description: Human O+ erythrocytes were obtained from Interstate Blood Bank, Inc. Red blood cells were subjected to four or more cycles of centrifugation at 1000g with resuspension in fresh PBS. Following the final wash step, the supernatant was clear and colorless. RBC concentration was determined using a standard hemocytometer.
Peptide was serially diluted in PBS starting at a concentration of 100 μM. The final volume of peptide in each well was 50 μL. To each well, 50 μL of RBCs in PBS at 2 × 10^8 cells/mL was added. As a positive lysis control, 1% Triton was used. The mixtures were incubated at 37 °C for 1 h, after which they were centrifuged at 1000g for 5 min. After centrifugation, 10 μL of supernatant was transferred to 90 μL of DI H2O in a fresh 96-well plate. The absorbance of released hemoglobin at 410 nm was recorded, and the fractional hemolysis was calculated based on the 100 and 0% lysis controls. At least three independent experiments were performed. Results shown are averages.

[7] = test system: WI-38 human fibroblast cells; experiment: in vitro; assay type: cell-based
Description: The day before cytotoxicity experiments, the 10,000 cells/well were plated in a 96-well tissue-culture plate. […] To perform the cytotoxicity assay, media was removed from the wells and replaced with peptide solutions. […] The plate was read for SYTOX fluorescence every 5 min for an hour with an excitation wavelength of 504 nm and an emission wavelength of 523 nm. Percent cytotoxicity was calculated at 60 min using the 100 and 0% lysis controls. At least three independent experiments were averaged.

[8] = test system: Acinetobacter baumannii (PDR) Tulane isolate; conditions: broth dilution; at least three independent measurements, SE about 40%; highest concentration 150 μM
[9] = ATCC33495, read-out: MIC, KP ATCC 33495
[10] = broth dilution, at least three independent measurements, SE about 40%, highest concentration 150 μM

Compound | MIC [1] [µM] | MIC [2] [µM] | MIC ([3]; read-out: MIC, PA(mucoid)) [µM] | MIC ([3]; read-out: MIC, PA(non-mucoid)) [µM] | MIC [5, 9] [µM] | MIC ([5]; read-out: MIC, KP 6) [µM] | MIC ([5]; read-out: MIC, KP 46) [µM] | MIC ([5]; read-out: MIC, KP 398) [µM] | MIC ([5]; read-out: MIC, KP 2146NDM-1) [µM] | MIC ([5]; read-out: MIC, KP (CRE)) [µM] | MIC ([5]; read-out: MIC, KP ST258 C2) [µM] | MIC ([5]; read-out: MIC, KP ST258 C3) [µM] | MIC ([5]; read-out: MIC, KP ST258 I2) [µM] | MIC ([5]; read-out: MIC, KP ST396) [µM] | MIC in Broth Dilution, E. coli [6] [µM] | Hemolysis at 100 μM (fractional hemolysis) (human RBCs) | other results
CC1(C)S[C@@H]2[C@H](NC(=O)[C@H](N)c3ccccc3)C(=O)N2[C@H]1C(=O)O [AMP, ampicillin] | > 150 | > 150 | > 150 | > 150 | – | – | – | – | – | – | – | – | – | – | – | – | MIC [4]: > 150 µM
CC(C)(O/N=C(\C(=O)N[C@@H]1C(=O)N2C(C(=O)[O-])=C(C[n+]3ccccc3)CS[C@H]12)c1csc(N)n1)C(=O)O [CAZ, ceftazidime] | > 150 | > 150 | 116 (≈ 63.4 µg/mL) | > 150 | > 150 | > 150 | > 150 | 133 (≈ 72.7 µg/mL) | > 150 | > 150 | > 150 | > 150 | > 150 | > 150 | – | – | MIC [4]: > 150 µM
O=C(O)c1cn(C2CC2)c2cc(N3CCNCC3)c(F)cc2c1=O [CIPRO, ciprofloxacin] | > 150 | 0.8 (≈ 0.265 µg/mL) | – | – | – | – | – | – | – | – | – | – | – | – | – | – | –
CO/N=C(\C(=O)N[C@@H]1C(=O)N2C(C(=O)O)=C(CSc3nc(=O)c(=O)[nH]n3C)CS[C@H]12)c1csc(N)n1 [CRO, ceftriaxone] | > 150 | > 150 | 137 (≈ 76 µg/mL) | 89 (≈ 49.4 µg/mL) | 0.3 (≈ 0.166 µg/mL) | > 150 | 1.9 (≈ 1.05 µg/mL) | 0.2 (≈ 0.111 µg/mL) | > 150 | 45 (≈ 25 µg/mL) | > 150 | > 150 | > 150 | 1.9 (≈ 1.05 µg/mL) | – | – | –
CC(C)C[C@H](NC(=O)[C@H](CCCNC(=N)N)NC(=O)[C@H](CCCNC(=N)N)NC(=O)[C@H](C)NC(=O)[C@H](Cc1c[nH]c2ccccc12)NC(=O)[C@H](CCCNC(=N)N)NC(=O)[C@H](N)CCCNC(=N)N)C(=O)N[C@@H](C)C(=O)N[C@@H](Cc1ccccc1)C(=O)N[C@@H](C)C(=O)N[C@@H](Cc1ccccc1)C(=O)N[C@@H](CCCNC(=N)N)C(=O)N[C@H](CCCNC(=N)N)C(N)=O [L-CONGA- (R1,R13)] (H-[dR]RWARRLAFAFR[dR]-NH2; N-terminus and C-terminus assumed) | – | – | – | – | – | – | – | – | – | – | – | – | – | – | 26 (≈ 45.8 µg/mL) | 0.01 | EC50 [7]: 134 µM
CC(C)C[C@@H]1NC(=O)[C@H](CCCNC(=N)N)NC(=O)[C@H](CCCNC(=N)N)NC(=O)[C@H](C)NC(=O)[C@H](Cc2c[nH]c3ccccc23)NC(=O)[C@H](CCCNC(=N)N)NC(=O)[C@H](CCCNC(=N)N)NC(=O)CC[C@@H](C(N)=O)NC(=O)[C@H](CCCNC(=N)N)NC(=O)[C@H](CCCNC(=N)N)NC(=O)[C@H](Cc2ccccc2)NC(=O)[C@H](C)NC(=O)[C@H](Cc2ccccc2)NC(=O)[C@H](C)NC1=O [L-CONGA-E cycl.] (RRWARRLAFAFRRE-NH2; lactam N-14) | – | – | – | – | – | – | – | – | – | – | – | – | – | – | 23 (≈ 43.1 µg/mL) | 0.03 | –
CC(C)C[C@@H]1NC(=O)[C@H](CCCNC(=N)N)NC(=O)[C@H](CCCNC(=N)N)NC(=O)[C@H](C)NC(=O)[C@H](Cc2c[nH]c3ccccc23)NC(=O)[C@H](CCCNC(=N)N)NC(=O)[C@H](CCCNC(=N)N)NC(=O)[C@H](CCCNC(=N)N)NC(=O)[C@H](CCCNC(=N)N)NC(=O)[C@H](Cc2ccccc2)NC(=O)[C@H](C)NC(=O)[C@H](Cc2ccccc2)NC(=O)[C@H](C)NC1=O [L-CONGA-OH cycl.] (cyclo(RRWARRLAFAFRR)) | – | – | – | – | – | – | – | – | – | – | – | – | – | – | 13 (≈ 22.7 µg/mL) | 0.07 | –
C[C@@H](O)[C@H]1C(=O)N2C(C(=O)O)=C(S[C@@H]3CN[C@H](C(=O)N(C)C)C3)[C@H](C)[C@H]12 [MEM, meropenem] | > 150 | > 150 | 13.3 (≈ 5.1 µg/mL) | 4 (≈ 1.53 µg/mL) | 0.2 (≈ 0.0767 µg/mL) | 0.2 (≈ 0.0767 µg/mL) | 0.4 (≈ 0.153 µg/mL) | 0.2 (≈ 0.0767 µg/mL) | > 150 | 108 (≈ 41.4 µg/mL) | > 150 | > 150 | > 150 | 0.3 (≈ 0.115 µg/mL) | – | – | –
NC[C@H]1O[C@H](O[C@H]2[C@H](O)[C@@H](O[C@H]3O[C@H](CO)[C@@H](O)[C@H](N)[C@H]3O)[C@H](N)C[C@@H]2N)[C@H](N)C[C@@H]1O [TOB, tobramycin] | > 150 | > 150 | 4.2 (≈ 1.96 µg/mL) | 5.9 (≈ 2.76 µg/mL) | 7.5 (≈ 3.51 µg/mL) | > 150 | 3.5 (≈ 1.64 µg/mL) | 6.9 (≈ 3.23 µg/mL) | > 150 | > 150 | > 150 | > 150 | > 150 | 4.6 (≈ 2.15 µg/mL) | – | – | –
gentamycin | – | – | – | – | – | – | – | – | – | – | – | – | – | – | – | – | MIC, KP 6 [5, 10]: > 150 µM; MIC, KP 46 [5, 10]: 1.6 µM; MIC, KP 398 [5, 10]: 1.9 µM; MIC, KP 2146NDM-1 [5, 10]: > 150 µM; MIC, KP (CRE) [5, 10]: 5.2 µM; MIC, KP ATCC 33495 [5, 10]: 1.9 µM; MIC, KP ST258 C2 [5, 10]: > 150 µM; MIC, KP ST258 C3 [5, 10]: > 150 µM; MIC, KP ST258 I2 [5, 10]: 8.3 µM; MIC, KP ST396 [5, 10]: 2.0 µM; MIC, AB (PDR)Tulane [8]: > 150 µM; MIC, MRSA USA400 [2, 10]: > 150 µM; MIC, PA(mucoid) [3, 10]: 5.5 µM; MIC, PA(non-mucoid) [3, 10]: 8.3 µM
